Assay results published in patent US20220187282A1, “CARDIOMYOCYTE PROLIFERATION” (The Council of the Queensland Institute of Medical Research, priority 2019, published 2022).
Like-named read-outs stand apart in the source and are kept apart here.

Key:
Format in all cases: biochemical
[1] = biological target: kinases (Homo sapiens, UniProt O43293); conditions: DAPK3 (ZIPK) FRET-Z-Lyte SP; Test Conc(μM):ATP Conc(μM) 1:5
[2] = biological target: kinases (Homo sapiens, UniProt O75582); conditions: RPS6KA5 (MSK1) FRET-Z-Lyte SP; ATP Conc(μM):Test Conc(μM) 1:50
[3] = biological target: kinases (Homo sapiens, UniProt P08631); conditions: HCK FRET-Z-Lyte SP; Test Conc(μM):ATP Conc(μM) 1:25
[4] = biological target: kinases (Homo sapiens, UniProt P09619); conditions: PDGFRB *Mn* FRET-Z-Lyte SP; Test Conc(μM):ATP Conc(μM) 1:100
[5] = biological target: kinases (Homo sapiens, UniProt P11362); conditions: FGFR1 *Mn* FRET-Z-Lyte SP; Test Conc(μM):ATP Conc(μM) 1:25
[6] = biological target: kinases (Homo sapiens, UniProt P32298); conditions: GRK4 FRET-Z-Lyte SP; Test Conc(μM):ATP Conc(μM) 1:10
[7] = biological target: kinases (Homo sapiens, UniProt P37173); conditions: TGFBR2 FRET-Lantha SP; Test Conc(μM) 1
[8] = biological target: kinases (Homo sapiens, UniProt P50750)
[9] = biological target: kinases (Homo sapiens, UniProt P54760); conditions: EPHB4 FRET-Z-Lyte SP; Test Conc(μM):ATP Conc(μM) 1:100
[10] = biological target: kinases (Homo sapiens, UniProt P68400); conditions: CSNK2A1 (CK2alpha1) Z-Lyte SP; Test Conc(μM):ATP Conc(μM) 1:5
[11] = biological target: kinases (Homo sapiens, UniProt P80192); conditions: MAP3K9 (MLK1) FRET-Z-Lyte SP; Test Conc(μM):ATP Conc(μM) 1:75
[12] = biological target: kinases (Homo sapiens, UniProt Q05513); conditions: PRKCZ (PKC zeta) Z-Lyte SP; Test Conc(μM):ATP Conc(μM) 1:5
[13] = biological target: kinases (Homo sapiens, UniProt Q07002); conditions: CDK18/cyclin Y FRET-Z-Lyte SP; Test Conc(μM):ATP Conc(μM) 1:75
[14] = biological target: kinases (Homo sapiens, UniProt Q09013); conditions: DMPK FRET-Lantha SP; Test Conc(μM) 1
[15] = biological target: kinases (Homo sapiens, UniProt Q12851); conditions: MAP4K2 (GCK) FRET-Z-Lyte SP; Test Conc(μM):ATP Conc(μM) 1:100
[16] = biological target: kinases (Homo sapiens, UniProt Q13131)
[17] = biological target: kinases (Homo sapiens, UniProt Q13164); conditions: MAPK7 (ERK5) FRET-Z-Lyte SP; Test Conc(μM):ATP Conc(μM) 1:10
[18] = biological target: kinases (Homo sapiens, UniProt Q15139); conditions: PRKD1 (PKC mu) Z-Lyte SP; Test Conc(μM):ATP Conc(μM) 1:10
[19] = biological target: kinases (Homo sapiens, UniProt Q15746); conditions: MYLK (MLCK) FRET-Lantha SP; Test Conc(μM) 1
[20] = biological target: kinases (Homo sapiens, UniProt Q86Y07); conditions: VRK2 FRET-Lantha SP; Test Conc(μM) 1
[21] = biological target: kinases (Homo sapiens, UniProt Q8IWQ3); conditions: BRSK2 FRET-Lantha SP; Test Conc(μM) 1
[22] = biological target: kinases (Homo sapiens, UniProt Q9BYT3); conditions: STK33 FRET-Lantha SP; Test Conc(μM) 1
[23] = biological target: kinases (Homo sapiens, UniProt Q9H093); conditions: NUAK2 FRET-Lantha SP; Test Conc(μM) 1
[24] = biological target: kinases (Homo sapiens, UniProt Q9H2K8); conditions: TAOK3 (JIK) FRET-Lantha SP; Test Conc(μM) 1
[25] = biological target: kinases (Homo sapiens, UniProt Q9H4A3); conditions: Test Conc(μM) 1
[26] = biological target: kinases (Homo sapiens, UniProt Q9HC98); conditions: NEK6 FRET-Z-Lyte SP; Test Conc(μM):ATP Conc(μM) 1:100
[27] = biological target: kinases (Homo sapiens, UniProt Q9NWZ3); conditions: IRAK4 *Mn* FRET-Z-Lyte SP; Test Conc(μM):ATP Conc(μM) 1:25
[28] = biological target: kinases (Homo sapiens, UniProt Q9NY57); conditions: STK32B (YANK2) FRET-Lantha SP; Test Conc(μM) 1
[29] = CDK9 (Inactive) FRET-Lantha SP, Test Conc(μM) 1
[30] = CDK9/cyclin K FRET-Lantha SP, Test Conc(μM) 1
[31] = CDK9/cyclin T1 FRET-Adapta SP, Test Conc(μM):ATP Conc(μM) 1:25
[32] = AMPK (A1/B1/G2) FRET-Lantha SP, Test Conc(μM) 1
[33] = AMPK (A1/B1/G3) FRET-Lantha SP, Test Conc(μM) 1
[34] = AMPK (A1/B2/G1) FRET-Lantha SP, Test Conc(μM) 1
[35] = AMPK A1/B1/G1 FRET-Z-lyte SP, Test Conc(μM):ATP Conc(μM) 1:50
[36] = AMPK A1/B2/G2 FRET-Z-Lyte SP, Test Conc(μM):ATP Conc(μM) 1:10
[37] = AMPK A1/B2/G3 FRET-Z-Lyte SP, Test Conc(μM):ATP Conc(μM) 1:10

Sequence of kinases (Homo sapiens, UniProt P50750) (P50750 whole entry): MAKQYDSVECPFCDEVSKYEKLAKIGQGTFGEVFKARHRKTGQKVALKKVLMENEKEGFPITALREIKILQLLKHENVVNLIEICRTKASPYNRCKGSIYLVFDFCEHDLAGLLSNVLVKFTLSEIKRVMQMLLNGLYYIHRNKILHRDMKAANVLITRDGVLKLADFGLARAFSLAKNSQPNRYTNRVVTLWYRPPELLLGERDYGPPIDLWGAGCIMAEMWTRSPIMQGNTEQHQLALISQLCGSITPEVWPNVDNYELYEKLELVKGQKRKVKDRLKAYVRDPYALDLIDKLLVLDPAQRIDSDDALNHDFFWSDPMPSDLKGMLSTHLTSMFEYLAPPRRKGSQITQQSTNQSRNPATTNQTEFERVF
Sequence of kinases (Homo sapiens, UniProt Q13131) (Q13131 whole entry): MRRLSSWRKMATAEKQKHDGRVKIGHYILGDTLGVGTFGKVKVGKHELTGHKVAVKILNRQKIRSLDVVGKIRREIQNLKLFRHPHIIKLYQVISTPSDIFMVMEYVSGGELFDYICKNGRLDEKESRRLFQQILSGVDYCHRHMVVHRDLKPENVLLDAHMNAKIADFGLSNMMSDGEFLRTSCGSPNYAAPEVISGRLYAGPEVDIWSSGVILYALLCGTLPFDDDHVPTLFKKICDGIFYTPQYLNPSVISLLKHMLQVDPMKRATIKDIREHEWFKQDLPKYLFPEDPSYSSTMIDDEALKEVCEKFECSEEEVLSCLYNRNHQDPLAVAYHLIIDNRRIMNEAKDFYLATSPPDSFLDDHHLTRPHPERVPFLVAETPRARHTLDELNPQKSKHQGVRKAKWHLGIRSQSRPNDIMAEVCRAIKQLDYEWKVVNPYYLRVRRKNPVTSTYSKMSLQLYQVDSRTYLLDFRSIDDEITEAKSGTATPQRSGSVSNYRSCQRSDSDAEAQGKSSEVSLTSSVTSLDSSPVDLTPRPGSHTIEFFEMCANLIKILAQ
Sequence of kinases (Homo sapiens, UniProt Q07002) (Q07002 whole entry): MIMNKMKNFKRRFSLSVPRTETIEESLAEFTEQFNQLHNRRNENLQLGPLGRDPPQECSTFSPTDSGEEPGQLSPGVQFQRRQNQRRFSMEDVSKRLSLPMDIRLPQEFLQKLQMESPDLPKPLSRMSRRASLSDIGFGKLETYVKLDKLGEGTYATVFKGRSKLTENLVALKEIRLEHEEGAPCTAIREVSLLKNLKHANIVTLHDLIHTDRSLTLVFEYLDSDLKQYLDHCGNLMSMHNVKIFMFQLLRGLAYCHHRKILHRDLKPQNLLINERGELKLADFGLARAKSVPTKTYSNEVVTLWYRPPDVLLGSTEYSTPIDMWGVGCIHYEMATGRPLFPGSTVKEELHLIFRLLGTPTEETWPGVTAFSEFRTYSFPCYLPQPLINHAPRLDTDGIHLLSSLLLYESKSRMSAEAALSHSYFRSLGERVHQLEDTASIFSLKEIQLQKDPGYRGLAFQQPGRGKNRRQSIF
Sequence of kinases (Homo sapiens, UniProt Q05513) (Q05513 whole entry): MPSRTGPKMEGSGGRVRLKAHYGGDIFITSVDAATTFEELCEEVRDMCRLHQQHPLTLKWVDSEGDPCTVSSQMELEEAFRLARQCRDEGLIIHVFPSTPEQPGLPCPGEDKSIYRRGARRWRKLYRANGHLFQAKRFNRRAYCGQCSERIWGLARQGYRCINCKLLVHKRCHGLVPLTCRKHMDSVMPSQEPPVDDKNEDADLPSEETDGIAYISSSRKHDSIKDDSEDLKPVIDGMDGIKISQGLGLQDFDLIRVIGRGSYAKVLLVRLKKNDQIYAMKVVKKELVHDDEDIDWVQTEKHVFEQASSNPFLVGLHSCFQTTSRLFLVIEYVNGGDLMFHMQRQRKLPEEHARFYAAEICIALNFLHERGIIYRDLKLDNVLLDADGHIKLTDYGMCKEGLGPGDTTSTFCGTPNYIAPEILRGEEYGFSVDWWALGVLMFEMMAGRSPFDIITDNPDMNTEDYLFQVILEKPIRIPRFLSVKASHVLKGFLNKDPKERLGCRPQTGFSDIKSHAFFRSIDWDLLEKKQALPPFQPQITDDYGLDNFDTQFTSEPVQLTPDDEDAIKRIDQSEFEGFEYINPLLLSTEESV
Sequence of kinases (Homo sapiens, UniProt O43293) (O43293 whole entry): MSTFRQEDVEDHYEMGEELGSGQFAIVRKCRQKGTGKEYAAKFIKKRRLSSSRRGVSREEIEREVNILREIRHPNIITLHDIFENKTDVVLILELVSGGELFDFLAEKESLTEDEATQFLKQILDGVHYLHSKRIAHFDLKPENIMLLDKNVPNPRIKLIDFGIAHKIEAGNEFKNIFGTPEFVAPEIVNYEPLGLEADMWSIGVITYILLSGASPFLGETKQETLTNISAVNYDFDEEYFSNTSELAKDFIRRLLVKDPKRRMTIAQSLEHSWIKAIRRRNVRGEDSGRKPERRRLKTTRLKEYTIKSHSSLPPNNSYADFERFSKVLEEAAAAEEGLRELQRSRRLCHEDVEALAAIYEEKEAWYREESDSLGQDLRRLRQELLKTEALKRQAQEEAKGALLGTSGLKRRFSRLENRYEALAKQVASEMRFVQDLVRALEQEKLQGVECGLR
Sequence of kinases (Homo sapiens, UniProt Q09013) (Q09013 whole entry): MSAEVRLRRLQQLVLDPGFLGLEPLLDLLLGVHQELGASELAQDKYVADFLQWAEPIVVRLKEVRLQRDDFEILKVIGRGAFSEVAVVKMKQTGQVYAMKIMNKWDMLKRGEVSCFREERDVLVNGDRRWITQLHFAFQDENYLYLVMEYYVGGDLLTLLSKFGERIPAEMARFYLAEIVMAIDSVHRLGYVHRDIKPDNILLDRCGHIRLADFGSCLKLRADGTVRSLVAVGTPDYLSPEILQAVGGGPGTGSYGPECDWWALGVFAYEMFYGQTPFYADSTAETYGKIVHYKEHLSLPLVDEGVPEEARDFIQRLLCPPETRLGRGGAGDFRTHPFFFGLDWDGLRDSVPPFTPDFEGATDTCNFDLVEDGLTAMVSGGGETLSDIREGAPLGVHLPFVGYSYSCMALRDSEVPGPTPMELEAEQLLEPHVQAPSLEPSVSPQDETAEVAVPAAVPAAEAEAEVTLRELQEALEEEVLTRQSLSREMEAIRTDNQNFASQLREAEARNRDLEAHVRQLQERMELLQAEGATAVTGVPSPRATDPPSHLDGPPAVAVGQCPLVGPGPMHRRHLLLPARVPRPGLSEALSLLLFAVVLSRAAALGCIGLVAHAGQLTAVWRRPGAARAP
Sequence of kinases (Homo sapiens, UniProt P32298) (P32298 whole entry): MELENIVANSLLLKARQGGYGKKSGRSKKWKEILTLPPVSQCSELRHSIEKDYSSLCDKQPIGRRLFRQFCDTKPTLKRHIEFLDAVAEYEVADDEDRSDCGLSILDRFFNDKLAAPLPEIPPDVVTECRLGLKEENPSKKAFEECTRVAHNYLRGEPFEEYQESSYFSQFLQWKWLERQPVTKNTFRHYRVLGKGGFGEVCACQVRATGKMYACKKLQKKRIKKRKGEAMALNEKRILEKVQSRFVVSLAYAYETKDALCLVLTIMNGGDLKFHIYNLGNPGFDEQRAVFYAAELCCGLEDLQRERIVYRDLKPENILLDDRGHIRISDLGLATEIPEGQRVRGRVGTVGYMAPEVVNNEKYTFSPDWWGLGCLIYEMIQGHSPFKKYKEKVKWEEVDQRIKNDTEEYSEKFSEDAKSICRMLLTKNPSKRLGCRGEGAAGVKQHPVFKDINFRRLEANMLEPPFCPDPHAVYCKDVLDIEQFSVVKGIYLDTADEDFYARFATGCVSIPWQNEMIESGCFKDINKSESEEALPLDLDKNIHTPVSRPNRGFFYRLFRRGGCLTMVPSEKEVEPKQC
Sequence of kinases (Homo sapiens, UniProt P68400) (P68400 whole entry): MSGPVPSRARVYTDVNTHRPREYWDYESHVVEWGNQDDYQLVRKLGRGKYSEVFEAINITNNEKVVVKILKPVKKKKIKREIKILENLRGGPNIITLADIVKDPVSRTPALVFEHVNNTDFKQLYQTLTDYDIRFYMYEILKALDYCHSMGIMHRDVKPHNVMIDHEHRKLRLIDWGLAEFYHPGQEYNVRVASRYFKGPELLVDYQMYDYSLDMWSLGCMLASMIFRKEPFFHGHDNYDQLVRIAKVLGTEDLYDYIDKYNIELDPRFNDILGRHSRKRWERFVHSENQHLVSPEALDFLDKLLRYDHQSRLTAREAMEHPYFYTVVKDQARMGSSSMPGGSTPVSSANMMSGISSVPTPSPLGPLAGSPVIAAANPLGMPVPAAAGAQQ
Sequence of kinases (Homo sapiens, UniProt P11362) (P11362 22-822): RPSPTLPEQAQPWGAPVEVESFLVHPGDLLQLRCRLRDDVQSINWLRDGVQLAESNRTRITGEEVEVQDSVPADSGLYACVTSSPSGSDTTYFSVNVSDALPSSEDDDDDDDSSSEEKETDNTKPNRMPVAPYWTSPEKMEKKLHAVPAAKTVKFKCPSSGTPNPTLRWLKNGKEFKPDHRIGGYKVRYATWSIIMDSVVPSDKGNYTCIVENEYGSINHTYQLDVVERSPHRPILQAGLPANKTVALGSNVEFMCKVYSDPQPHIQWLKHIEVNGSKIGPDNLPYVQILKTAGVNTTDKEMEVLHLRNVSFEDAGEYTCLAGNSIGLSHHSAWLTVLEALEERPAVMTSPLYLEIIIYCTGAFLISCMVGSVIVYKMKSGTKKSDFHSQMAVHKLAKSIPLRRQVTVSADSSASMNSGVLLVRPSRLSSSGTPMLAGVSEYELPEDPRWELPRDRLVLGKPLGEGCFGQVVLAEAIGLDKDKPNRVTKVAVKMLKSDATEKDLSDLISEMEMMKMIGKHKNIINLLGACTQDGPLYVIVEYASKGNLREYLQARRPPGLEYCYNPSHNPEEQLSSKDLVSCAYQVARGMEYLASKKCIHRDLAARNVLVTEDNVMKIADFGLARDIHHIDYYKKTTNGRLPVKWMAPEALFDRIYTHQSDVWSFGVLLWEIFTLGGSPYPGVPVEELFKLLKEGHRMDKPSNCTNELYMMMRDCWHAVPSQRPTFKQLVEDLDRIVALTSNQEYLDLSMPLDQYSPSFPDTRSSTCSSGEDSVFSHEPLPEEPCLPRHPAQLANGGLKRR

SMILES | Mean Inhib (%) [1] [%] | Mean Inhib (%) [2] [%] | Mean Inhib (%) [3] [%] | Mean Inhib (%) [4] [%] | Mean Inhib (%) [5] [%] | Mean Inhib (%) [6] [%] | Mean Inhib (%) [7] [%] | Mean Inhib (%) [8, 29] [%] | Mean Inhib (%) [8, 30] [%] | Mean Inhib (%) [8, 31] [%] | Mean Inhib (%) [9] [%] | Mean Inhib (%) [10] [%] | Mean Inhib (%) [11] [%] | Mean Inhib (%) [12] [%] | Mean Inhib (%) [13] [%] | Mean Inhib (%) [14] [%] | Mean Inhib (%) [15] [%] | Mean Inhib (%) [16, 32] [%] | Mean Inhib (%) [16, 33] [%] | Mean Inhib (%) [16, 34] [%] | also measured
Cc1ccc(NC(=O)c2ccnc(N3CCOCC3)c2)cc1Nc1ccnc(N2CC(C)OC(C)C2)n1 (stereo not shown) [compound 3] | 3.3 | 1.6 | 6.4 | 15.5 | 6.5 | 0.0 | −3.5 | 6.2 | −1.9 | 17.2 | 1.4 | 6.1 | 1.3 | 12.0 | 2.7 | 7.1 | 13.1 | 5.6 | −10.3 | 0.0 | Mean Inhib (%) [16, 35]: 0.3%; Mean Inhib (%) [16, 36]: 12.2%; Mean Inhib (%) [16, 37]: 20.8%; Mean Inhib (%) [17]: 0.2%; Mean Inhib (%) [18]: 6.5%; Mean Inhib (%) [19]: 2.2%; Mean Inhib (%) [20]: −5.7%; Mean Inhib (%) [21]: 3.2%; Mean Inhib (%) [22]: 1.7%; Mean Inhib (%) [23]: 14.1%; Mean Inhib (%) [24]: 0.3%; Mean Inhib (%) ([25]; WNK1 FRET-Lantha SP): 2.7%; Mean Inhib (%) [26]: −4.0%; Mean Inhib (%) [27]: 12.7%; Mean Inhib (%) [28]: −1.3%
Cc1cc(Oc2ccnc(Nc3ccc(S(N)(=O)=O)cc3)c2)c(-c2ccccn2)nc1C [compound 65] | −11.8 | 10.0 | 30.9 | 3.9 | 4.3 | 16.3 | 67.0 | 6.9 | 2.6 | 6.2 | 58.1 | 2.4 | 3.4 | −22.4 | 1.2 | 0.5 | 18.4 | 1.3 | −1.2 | 2.3 | Mean Inhib (%) [16, 35]: −0.6%; Mean Inhib (%) [16, 36]: −0.5%; Mean Inhib (%) [16, 37]: −2.4%; Mean Inhib (%) [17]: 6.6%; Mean Inhib (%) [18]: 11.3%; Mean Inhib (%) [19]: −0.5%; Mean Inhib (%) [20]: −16.6%; Mean Inhib (%) [21]: 10.2%; Mean Inhib (%) [22]: −6.6%; Mean Inhib (%) [23]: 9.4%; Mean Inhib (%) [24]: 1.7%; WNK1 FRET-Lantha SP Mean Mean Inhib (%) ([25]; WNK1): 5.3%; Mean Inhib (%) [26]: 8.2%; Mean Inhib (%) [27]: 6.8%; Mean Inhib (%) [28]: 2.1%
